Data on seven compounds can be found in patent EP2465859A1, “8-Triazolylxanthine derivatives, processes for their production and their use as adenosine receptor antagonists” (Life & Brain GmbH, priority 2010, dated 2012).

Molecules are shown by their SMILES. pEC50, pIC50: −log10 of the molar value.

Type in all cases: cell-based
Test [1] concerns TNFα expression in ESdM cells. Description: ELISA assay: TNFα expression in ESdM cells stimulated with LPS and NECA or adenosine. Particulars: for pIC50: 24 h, LPS-induced TNFα expression in the presence of NECA (100 nM NECA, 100 ng/ml LPS), read-out: EC50 (the source's name); for TNF alpha expression: 100 nM NECA, various antagonist concentrations; for functional character at human A2B adenosine receptors: conclusion from the ELISA functional experiment. How it is done: With the ELISA assay in Fig. 5 the effects of adenosine receptor antagonists were investigated. […] In the presence of the antagonists to be investigated, the influence on the TNFα expression was analyzed. The cytokine expression was determined in the ELISA.
The determined EC50 concentration amounted to 60 nM. ESdM cells were stimulated with 100 nM of NECA and 100 ng/ml of LPS, and the A2B antagonist 1a was added to the stimulated cells at various concentrations for 24 h. The supernatants of the cells were investigated for TNFα expression in an ELISA.
Example 53: ELISA Assay The ELISA assay was used to investigate the effects of adenosine antagonists. […] In the presence of the antagonists to be investigated, their influence on TNFα expression was analyzed. The cytokine expression was determined in the ELISA (Fig. 5).
To evaluate, whether ESdM cells can be stimulated by Adenosine 3 x 10^5 ESdM cells were seeded in 12 wells. The next day the cells have been stimulated with 1 µM Adenosine (Sigma-Aldrich) and different concentrations of LPS (10 ng/ml, 100 ng/ml and 500 ng/ml, Sigma-Aldrich). Supernatants were collected 24 hours later and were analysed for TNFα expression in an ELISA (EBioscience). As shown here (Fig. 6A), ESdM cells are sensitive for stimulation with 1 µM adenosine. Best results are achieved with a LPS concentration of 100 ng/ml, whereas 500 ng/ml of LPS provide […] detectable TNFα values.
To examine, if ESdM cells can also be stimulated with the synthetic adenosine receptor agonist NECA, ESdM cells were seeded in 12 wells in the same concentration as mentioned before. These cells were treated with different concentrations of NECA (1 µM and 100 nM) and 100 ng/ml LPS. The next day supernatants were collected and analysed for TNFα expression.
To analyse the effect of the A2B antagonist 1a, 3 x 10^5 ESdM cells were seeded in 12 wells. The next day cells were stimulated with 100 nM NECA, 100 ng/ml LPS and various concentrations (10 pM-10 nM) of A2B-receptor antagonist 1a Supernatants of the cells were investigated for TNFα expression in an ELISA.

A further test deals with T1, human A2B receptor (Homo sapiens, UniProt P29275).
T1 construct: expressed in transfected cells; host or cells: HEK cells
T1 sequence (P29275 1-332): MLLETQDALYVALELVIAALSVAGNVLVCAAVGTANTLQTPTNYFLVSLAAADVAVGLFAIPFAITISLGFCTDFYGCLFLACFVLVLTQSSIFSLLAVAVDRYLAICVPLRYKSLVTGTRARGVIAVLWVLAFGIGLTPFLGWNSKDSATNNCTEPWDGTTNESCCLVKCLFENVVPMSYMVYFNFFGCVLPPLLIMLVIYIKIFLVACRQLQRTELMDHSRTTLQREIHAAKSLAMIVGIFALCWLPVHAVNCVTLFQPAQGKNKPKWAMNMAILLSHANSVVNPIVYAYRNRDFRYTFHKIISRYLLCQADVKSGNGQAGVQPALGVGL
Description: cAMP assay in HEK cells recombinantly expressing the human A2B receptor.

Test [2] has as its target T2, human adenosine A2B receptor (Homo sapiens, UniProt P29275).
T2 construct: expressed in transfected cells; host or cells: CHO cells
T2 sequence (P29275 1-332): T1 sequence (P29275 1-332)
The test can be described thus: cAMP assay in CHO cells recombinantly expressing the human adenosine A2B receptor (NECA dose-response curve shift). Particulars: for NECA-induced increase in cAMP formation / mode of antagonism (NECA curve shifted to the right): single antagonist concentration, ~5-fold of the Ki value. How it is done: Dose-response curves for the agonist NECA were determined in the absence and in the presence of a single concentration of the new antagonists 1d and 1f, using a ∼ 5-fold concentration of the Ki-values.

Description for human A2B receptor: Example 52: cAMP assay The preparation of cAMP binding protein was carried out as previously described by Nordstedt and Fredholm (Anal. Biochem. 1990, 189, 231-234). 5'-(N-Ethylcarboxamido)adenosine (NECA) was obtained from Sigma. For cAMP experiments HEK cells, expressed the human recombinant A2B receptor were removed from a confluent 175 cm^2 flask, transferred into a falcon tube and spun down at 200 g, 4 °C for 5 min. After removal of the supernatant, the cell pellet was resuspended in Hank's buffered saline solution (HBSS, pH 7.4). 200 µl of the cell solution (∼ 200.000 cells per well) with 2 U/ml ADA was transferred into each well of a 24-well plate. After an incubation time of 1.5 h at 37 °C, 5 % CO2, 25 µL of the phosphodiesterase (PDE) inhibitor Ro-20-1724 (40 µM f.c.), dissolved in 100 % HBSS-puffer was added to each well and incubated for 10 min at 37 °C. […] After 10 min incubation time 12.5 µl of agonist (NECA) dissolved in the same buffer as well, was added and incubated for 15 min at 37 °C. NECA was incubated in concentrations of 10 µM and 1 µM alone as an control experiment. […] Well plates were put on ice and each well was subsequently homogenised by pipetting 6-7 times up and down. Competition binding experiments were performed in a final volume of 120 µl containing 50 µl of cell lysates, 30 µl of [^3H]cAMP (f.c. 3 nM) in lysis buffer (4 mM EDTA, 0.01 % trition X-100) and 40 µl of cAMP binding protein in the same buffer (50 µg protein per vial). Total binding was determined in the absence of cold cAMP and nonspecific binding was determined in the absence of cold cAMP and without binding protein. For a cAMP standard curve 50 µl of known cAMP concentration was put instead of 50 µl cell lysate. […] Then, filters were transferred to vials, incubated for 9 h with 2.5 mL of scintillation cocktail (Beckmann Coulter), and counted in a liquid scintillation counter (Tricarb 2700TR) with a counting efficiency of ∼ 54%.

For the compound `Cn1c(=O)c2[nH]c(-c3cn(Cc4cccc(C(F)(F)F)c4)nn3)nc2n(C)c1=O` [1a, 1,3-Dimethyl-8-(1-(3-(trifluoromethyl)benzyl)-1H-1,2,3-triazol-4-yl)-1H-purine-2,6(3H,7H)-dione], the pIC50 in test [1] (ESdM cells) was 5.59. The pEC50 in test [1] (ESdM cells, 100 nM NECA and 100 ng/ml LPS, antagonist for 24 h, TNFα in supernatant (Fig. 7A), read-out: EC50 concentration) is 7.22. In addition, in test [1] (ESdM cells, 100 ng/ml LPS), the TNF alpha expression result is “dose-dependent decrease”. In addition, the “functional character at human A2B adenosine receptors” value (“functional character” below) in test [1] is listed as “confirmed as antagonists”. Further, the “NECA-induced increase in cAMP formation” value on human A2B receptor (NECA 10 µM and 1 µM, antagonist 5 µM) was “inhibited”. For the same compound, on human A2B receptor (compound alone), the “effect on cAMP levels of the compound itself” value is reported as “no effect”.

Turning to `CCn1c(=O)c2[nH]c(-c3cn(Cc4cccc(C(F)(F)F)c4)nn3)nc2n(CC)c1=O` [1b, 1,3-Diethyl-8-(1-(3-(trifluoromethyl)benzyl)-1H-1,2,3-triazol-4-yl)-1H-purine-2,6(3H,7H)-dione], the pIC50 in test [1] (ESdM cells) is 5.96. For the same compound, the TNF alpha expression entry in test [1] (ESdM cells, 100 ng/ml LPS) is listed as “dose dependent decrease”. Moreover, the “functional character” value in test [1] is recorded as “confirmed as antagonists”.

As to `CCCn1c(=O)[nH]c2nc(-c3cn(Cc4cccc(C(F)(F)F)c4)nn3)[nH]c2c1=O` [1d, 1-Propyl-8-(1-(3-(trifluoromethyl)benzyl)-1H-1,2,3-triazol-4-yl)-1H-purine-2,6(3H,7H)-dione], in test [2], the “NECA-induced increase in cAMP formation” value was “inhibited” and the “mode of antagonism (NECA curve shifted to the right)” value was “competitive antagonism”. For the same compound, the pIC50 in test [1] (ESdM cells) is 5.95. In addition, in test [1] (ESdM cells, 100 ng/ml LPS), the TNF alpha expression entry is on record as “dose dependent decrease”. Further, in test [1], the “functional character” value was “confirmed as antagonists”.

Regarding `C#CCn1c(=O)c2[nH]c(-c3cn(Cc4cccc(C(F)(F)F)c4)nn3)nc2n(C)c1=O` [1f, 3-Methyl-1-(prop-2-ynyl)-8-(1-(3-(trifluoromethyl)-benzyl)-1H-1,2,3-triazol-4-yl)-1H-purine-2,6(3H,7H)-dione], in test [2], the “NECA-induced increase in cAMP formation” value was “inhibited” and the “mode of antagonism (NECA curve shifted to the right)” value is listed as “competitive antagonism”. For the same compound, the pIC50 in test [1] (ESdM cells) is 5.87. Also, in test [1] (ESdM cells, 100 ng/ml LPS), the TNF alpha expression result is listed as “dose dependent decrease”. The “functional character” value in test [1] is reported as “confirmed as antagonists”.

Consider `Cn1c(=O)n(CC2CC2)c(=O)c2[nH]c(-c3cn(Cc4cccc(C(F)(F)F)c4)nn3)nc21` [1g, 1-(Cyclopropylmethyl)-3-methyl-8-(1-(3-(trifluoromethyl)benzyl)-1H-1,2,3-triazol-4-yl)-1H-purine-2,6(3H,7H)-dione], for which, in test [1] (ESdM cells), the pIC50 is 5.63. For the same compound, the TNF alpha expression result in test [1] (ESdM cells, 100 ng/ml LPS) is listed as “dose dependent decrease”. The “functional character” value in test [1] is “confirmed as antagonists”.

Take `CCNC(=O)[C@H]1O[C@@H](n2cnc3c(N)ncnc32)[C@H](O)[C@@H]1O` [NECA, 5'-(N-Ethylcarboxamido)adenosine, reference compound]: the cAMP formation entry in test [2] (agonist dose-response curve) is “concentration-dependent increase”; on human A2B receptor (agonist, 10 µM and 1 µM) it was “concentration-dependent increase”. Also, the “stimulation of TNFα expression in ESdM cells following LPS stimulation” value in test [1] (1 µM and 100 nM NECA, 100 ng/ml LPS) is on record as “sensitive”.

Take `Nc1ncnc2c1ncn2[C@@H]1O[C@H](CO)[C@@H](O)[C@H]1O` [adenosine]: the “stimulation of TNFα expression in ESdM cells following LPS stimulation” value in test [1] (1 µM adenosine, LPS 10, 100 and 500 ng/ml, 24 hours) is reported as “sensitive”.
